Patent US10385072B2, “Gold(III) complexes as anticancer agents and a method of treating cancer” (King Fahd University of Petroleum and Minerals, priority 2017, dated 2019)

Experiments:
Assay type in all cases: cell-based, human
MCF-7 cells = experiment: Cell proliferation assay (MTT/MTS), MCF-7; details: 72-120 h, MTT or MTS, mean±SEM
From the text: (§1) Hodgkin's lymphoma cell line (L-540) and human androgen-resistant prostate cancer cell line (PC3) were obtained from the German Collection of Microorganisms and Cell Cultures (Braunschweig, Germany). Human breast adenocarcinoma cell line MCF-7 cell line (HTB-22™) was obtained from the American Type Culture Collection (ATCC, Rockville, Md., USA). Human ovarian epithelial carcinoma-derived cancer cells A2780 and its cisplatin-resistant clone A2780cis were from Sigma Inc (St. Louis, Mo., USA), and the isogenic cisplatin-resistant 2780CP-16 cells were cultured as previously described (Siddik, Z. H.; Mims, B.; Lozano, G.; Thai, G. Independent pathways of p53 induction by cisplatin and X-rays in a cisplatin-resistant ovarian tumor cell line. Cancer Res. 1998, 58, 698-703, incorporated herein by reference in its entirety). A panel of non-small cell lung cancer (NSCLC) cell lines (H460, A549, H226, H838, H157, H1975, H2122, SKLU1 and H1299) was obtained from Dr. Garth Powis at MD Anderson Cancer Center. […]
(§2) PC3 and MCF-7 cells (2.5×10^3), A2780, A2780cis (4.0×10^3), A2780CP-16 and lung cancer cells (H460, A549, H226, H838, H157, H1975, H2122, SKLU1 and H1299) were seeded in 96-well flat-bottomed microplates (100 μL) and incubated for 24 h (to allow cell adhesion) before drug testing. […] After treatment, cell proliferation was evaluated by the MTS assay (Promega). […]

PC3 cells = experiment: Cell proliferation assay (MTT/MTS), PC3; details: 72-120 h, MTT or MTS, mean±SEM
From the text: as §1, §2

[1] = tested on: L-540, PC3, MCF-7, A2780 and A2780cis cell lines; experiment: In vitro cytotoxicity across the cell line panel, compared with cisplatin; details: all cell lines tested
Method: (§3) PC3 and MCF-7 cells (2.5×10^3), A2780, A2780cis (4.0×10^3), A2780CP-16 and lung cancer cells (H460, A549, H226, H838, H157, H1975, H2122, SKLU1 and H1299) were seeded in 96-well flat-bottomed microplates (100 μL) and incubated for 24 h (to allow cell adhesion) before drug testing. The medium was then removed and replaced with fresh medium which separately contained cisplatin and the gold(III) compounds 1 to 9 at increasing concentrations (from 0.01 to 100 μM) at 37° C. for 72-120 h. Each treatment was performed in triplicate. Cell proliferation was assayed using the MTT assay or the MTS assay. […] After treatment, cell proliferation was evaluated by the MTS assay (Promega). […] The dependency of the anticancer activity of the gold(III) compounds on the type of p53 or the absence of p53 was assessed in A2780 cells following p53 knockdown by CRISPR (Cong, L.; Ran, F. A.; Cox, D.; Lin, S.; Barretto, R.; Habib, N.; Hsu, P. D.; Wu, X.; Jiang, W.; Marraffini, L. A.; Zhang, F. Multiplex genome engineering using CRISPR/Cas systems Science. 2013, 15; 339 (6121), 819-23, incorporate herein by reference in its entirety). […]

A2780 cells = experiment: Cell proliferation assay (MTT/MTS), A2780; details: 72-120 h, MTT or MTS, mean±SEM
From the text: as §1, §2

[2] = tested on: cisplatin-resistant A2780cis cells; experiment: Cell proliferation assay (MTT/MTS), A2780cis; details: for IC50: cisplatin-resistant A2780cis cells, 72-120 h, MTT or MTS, mean±SEM
From the text: Hodgkin's lymphoma cell line (L-540) and human androgen-resistant prostate cancer cell line (PC3) were obtained from the German Collection of Microorganisms and Cell Cultures (Braunschweig, Germany). Human breast adenocarcinoma cell line MCF-7 cell line (HTB-22™) was obtained from the American Type Culture Collection (ATCC, Rockville, Md., USA). Human ovarian epithelial carcinoma-derived cancer cells A2780 and its cisplatin-resistant clone A2780cis were from Sigma Inc (St. Louis, Mo., USA), and the isogenic cisplatin-resistant 2780CP-16 cells were cultured as previously described (Siddik, Z. H.; Mims, B.; Lozano, G.; Thai, G. Independent pathways of p53 induction by cisplatin and X-rays in a cisplatin-resistant ovarian tumor cell line. Cancer Res. 1998, 58, 698-703, incorporated herein by reference in its entirety). A panel of non-small cell lung cancer (NSCLC) cell lines (H460, A549, H226, H838, H157, H1975, H2122, SKLU1 and H1299) was obtained from Dr. Garth Powis at MD Anderson Cancer Center. Cell lines were further authenticated for their origin by BMR Genomics according to Cell ID System (Promega) protocol and using Genemapper ID Ver 3.2.1 to identify DNA short tandem repeat profiles. The […] cisplatin-resistant subclone (A2780cis) was maintained by weekly treatment with 1 μM cisplatin (Casagrande, N.; Celegato, M.; Borghese, C.; Mongiat, M.; Colombatti, A.; Aldinucci, D. Preclinical activity of the liposomal cisplatin Lipoplatin in ovarian cancer. Clin. Cancer Res. 2014, 20(21), 5496-5506, incorporated herein by reference in its entirety).
Cells were cultured in 5% CO2 in RPMI (for L-540, A2780, A2780cis, 2780CP-16, PC3 and the panel of lung cancer cells) or DMEM (for MCF-7 cells) media supplemented with 10% heat-inactivated fetal calf serum (FCS; Sigma-Aldrich-Italy), 0.2 mg/ml penicillin/streptomycin and 0.1% (w/v) L-gluamine (Biocrom) at 37° C. in a 5% CO2 fully humidified atmosphere.
(§4) Gold(III) compounds were dissolved in DMSO (final concentration of the gold(III) complexes was 10 mM) and stored at −80° C. in volumes of 500 μL or aliquoted into volumes of 10 μL and stored at −20° C. (used once without refreezing). They were then diluted in RPMI medium immediately before use. The culture medium with the same amount of drug-free DMSO was used as negative control.
as §2

A549 cells = experiment: Dose-response curves in A549 cells; details: 5 days after contacting
Method: as §4
as §3, with “h.” for “h. Each treatment was performed in triplicate. Cell proliferation was assayed using the MTT assay or the MTS assay.”

[3] = tested on: NSCLC cell lines (H460, A549, H226, H838, H157, H1975, H2122, SKLU1 and H1299); experiment: Cell proliferation assay, NSCLC panel grouped by p53 status; details: range over the NSCLC panel (WT-, Mut- and Null-p53)
From the text: as §1, §2

L-540 cells = experiment: Cell proliferation assay (MTS), L-540; details: mean±SEM
From the text: as §1, §2

[4] = tested on: A2780 ovarian cancer cells (CRISPR p53 KO); experiment: MTT assay, A2780 with p53 knocked out by CRISPR/Cas9; details: A2780 clone with p53 knocked out
Method: as §3

[5] = tested on: WT-p53 A2780 ovarian cancer cells (CRISPR Control); experiment: MTT assay, A2780 transfected with CRISPR control plasmid; details: A2780 clone with control plasmid
Method: as §3

[6] = tested on: cisplatin-resistant 2780CP cells; experiment: Cell proliferation assay, 2780CP-16; details: 2780CP versus A2780
From the text: Hodgkin's lymphoma cell line (L-540) and human androgen-resistant prostate cancer cell line (PC3) were obtained from the German Collection of Microorganisms and Cell Cultures (Braunschweig, Germany). Human breast adenocarcinoma cell line MCF-7 cell line (HTB-22™) was obtained from the American Type Culture Collection (ATCC, Rockville, Md., USA). […]
as §3, with “testing.” for “testing. The medium was then removed and replaced with fresh medium which separately contained cisplatin and the gold(III) compounds 1 to 9 at increasing concentrations (from 0.01 to 100 μM) at 37° C. for 72-120 h. Each treatment was performed in triplicate. Cell proliferation was assayed using the MTT assay or the MTS assay.”

Row | fold higher IC50 in A2780cis than in A2780 ([2]; A2780cis versus A2780) | Molecule | IC50 (MCF-7 cells) | IC50 (PC3 cells) | activity compared with cisplatin [1] | IC50 (A2780 cells) | IC50 [2] | potency from dose-response curves in A549 cells (A549 cells) | IC50 [3] | IC50 (L-540 cells) | IC50 [4] | IC50 [5] | Fold resistance A2780cis/A2780 ratio ([2]; ratio of IC50 in A2780cis to IC50 in A2780) | fold cisplatin resistance of 2780CP cells [6]
1 |  | CN(C)C(=S)[S][Au+2].Cc1ccc(-c2ccc(C)cn2)nc1.[Cl-].[Cl-] [Compound 4] | 280 ± 20 nM | 590 ± 50 nM | generally more effective than cisplatin | 280 ± 30 nM | 170 ± 10 nM | greater potencies than compounds 3, 6, and 9 | 120 to 310 nM | 2700 ± 220 nM | 83 ± 3 nM | 87 ± 3 nM |  | 
2 | about 7 fold | cis-[Pt(NH3)2Cl2] [Cisplatin, reference compound] | 22200 ± 200 nM | 3300 ± 300 nM |  | 1500 ± 100 nM | 10400 ± 900 nM |  |  | 2500 ± 100 nM |  |  | 6.93 | 20 fold
